Assay results published in publication PMC10041525, “New Dual Inhibitors of Bacterial Topoisomerases with Broad-Spectrum Antibacterial Activity and In Vivo Efficacy against Vancomycin-Intermediate Staphylococcus aureus” (Journal of Medicinal Chemistry, 2023).
≈ marks a conversion by molar mass, not a printed value. Like-named read-outs stand apart in the source and are kept apart here.

Test system: 100 A. baumannii strains (50 MDR, 50 non-MDR)
Experiment: MIC broth microdilution at IHMA Europe, panel of 100 strains
Format: cell-based
Settings: Acinetobacter baumannii, read-out: MIC

CN(C)c1cc(NC(=O)CNC(C)(C)C)c(O)c2c1C[C@H]1C[C@H]3[C@H](N(C)C)C(O)=C(C(N)=O)C(=O)[C@@]3(O)C(O)=C1C2=O [Tigecycline, tigecycline]
MIC (A. baumannii IHMA 1769393, Lithuania 2018, Non-MDR): 0.25 µg/mL (≈ 0.427 µM)
MIC (A. baumannii IHMA 1769782, Israel 2018, MDR): 4 µg/mL (≈ 6.83 µM)
MIC (A. baumannii IHMA 1769910, Israel 2018, Non-MDR): 2 µg/mL (≈ 3.41 µM)
MIC (A. baumannii IHMA 1790317, Czech Republic 2018, Non-MDR): 0.06 µg/mL (≈ 0.102 µM)
MIC (A. baumannii IHMA 1790916, Romania 2018, Non-MDR): 0.12 µg/mL (≈ 0.205 µM)
MIC (A. baumannii IHMA 1791877, Israel 2018, MDR): 2 µg/mL (≈ 3.41 µM)
MIC (A. baumannii IHMA 1792961, Jordan 2018, MDR): 2 µg/mL (≈ 3.41 µM)
MIC (A. baumannii IHMA 1795669, Tunisia 2018, Non-MDR): 0.06 µg/mL (≈ 0.102 µM)
MIC (A. baumannii IHMA 1814276, Lebanon 2018, MDR): 4 µg/mL (≈ 6.83 µM)
MIC (A. baumannii IHMA 1815198, Kuwait 2018, MDR): 4 µg/mL (≈ 6.83 µM)
MIC (A. baumannii IHMA 1815856, Israel 2018, MDR): 2 µg/mL (≈ 3.41 µM)
MIC (A. baumannii IHMA 1821468, South Africa 2018, Non-MDR): 0.25 µg/mL (≈ 0.427 µM)
MIC (A. baumannii IHMA 1829500, Georgia 2018, Non-MDR): 0.5 µg/mL (≈ 0.854 µM)
MIC (A. baumannii IHMA 1830924, United Kingdom 2018, Non-MDR): 0.5 µg/mL (≈ 0.854 µM)
MIC (A. baumannii IHMA 1849819, Kuwait 2018, MDR): 4 µg/mL (≈ 6.83 µM)
MIC (A. baumannii IHMA 1849829, Kuwait 2018, Non-MDR): 0.25 µg/mL (≈ 0.427 µM)
MIC (A. baumannii IHMA 1857118, Slovenia 2018, Non-MDR): 0.25 µg/mL (≈ 0.427 µM)
MIC (A. baumannii IHMA 1863631, France 2018, Non-MDR): 0.25 µg/mL (≈ 0.427 µM)
MIC (A. baumannii IHMA 1870054, United States 2018, Non-MDR): 0.12 µg/mL (≈ 0.205 µM)
MIC (A. baumannii IHMA 1884428, Italy 2018, Non-MDR): 0.25 µg/mL (≈ 0.427 µM)
MIC (A. baumannii IHMA 1884990, Germany 2018, Non-MDR): 0.12 µg/mL (≈ 0.205 µM)
MIC (A. baumannii IHMA 1900538, Turkey 2018, Non-MDR): 0.25 µg/mL (≈ 0.427 µM)
MIC (A. baumannii IHMA 1913773, Kenya 2018, Non-MDR): 0.25 µg/mL (≈ 0.427 µM)
MIC (A. baumannii IHMA 1926285, Qatar 2018, Non-MDR): 0.12 µg/mL (≈ 0.205 µM)
MIC (A. baumannii IHMA 1926288, Qatar 2018, MDR): 4 µg/mL (≈ 6.83 µM)
MIC (A. baumannii IHMA 1957343, Portugal 2019, Non-MDR): 0.12 µg/mL (≈ 0.205 µM)
MIC (A. baumannii IHMA 1963732, Turkey 2019, MDR): 4 µg/mL (≈ 6.83 µM)
MIC (A. baumannii IHMA 1967860, Spain 2019, Non-MDR): 4 µg/mL (≈ 6.83 µM)
MIC (A. baumannii IHMA 1971673, Latvia 2019, MDR): 2 µg/mL (≈ 3.41 µM)
MIC (A. baumannii IHMA 1975075, Israel 2019, Non-MDR): 0.5 µg/mL (≈ 0.854 µM)
MIC (A. baumannii IHMA 1977077, Kuwait 2019, Non-MDR): 0.5 µg/mL (≈ 0.854 µM)
MIC (A. baumannii IHMA 1983151, Greece 2019, MDR): 2 µg/mL (≈ 3.41 µM)
MIC (A. baumannii IHMA 1984665, Lithuania 2019, MDR): 4 µg/mL (≈ 6.83 µM)
MIC (A. baumannii IHMA 1986678, Turkey 2019, Non-MDR): 0.5 µg/mL (≈ 0.854 µM)
MIC (A. baumannii IHMA 1986738, Turkey 2019, MDR): 4 µg/mL (≈ 6.83 µM)
MIC (A. baumannii IHMA 1987162, Croatia 2019, MDR): 2 µg/mL (≈ 3.41 µM)
MIC (A. baumannii IHMA 1993615, Turkey 2019, MDR): 0.5 µg/mL (≈ 0.854 µM)
MIC (A. baumannii IHMA 1994284, Italy 2019, MDR): 1 µg/mL (≈ 1.71 µM)
MIC (A. baumannii IHMA 1995161, Czech Republic 2019, Non-MDR): 0.12 µg/mL (≈ 0.205 µM)
MIC (A. baumannii IHMA 1997936, Morocco 2019, Non-MDR): 0.25 µg/mL (≈ 0.427 µM)
MIC (A. baumannii IHMA 1999178, Belgium 2019, Non-MDR): 0.25 µg/mL (≈ 0.427 µM)
MIC (A. baumannii IHMA 2003279, Turkey 2019, MDR): 2 µg/mL (≈ 3.41 µM)
MIC (A. baumannii IHMA 2014367, Jordan 2019, Non-MDR): 0.12 µg/mL (≈ 0.205 µM)
MIC (A. baumannii IHMA 2014931, South Africa 2019, Non-MDR): 0.25 µg/mL (≈ 0.427 µM)
MIC (A. baumannii IHMA 2019315, Romania 2019, Non-MDR): 0.12 µg/mL (≈ 0.205 µM)
MIC (A. baumannii IHMA 2020360, Croatia 2019, MDR): 4 µg/mL (≈ 6.83 µM)
MIC (A. baumannii IHMA 2031511, Greece 2019, Non-MDR): 0.12 µg/mL (≈ 0.205 µM)
MIC (A. baumannii IHMA 2031524, Greece 2019, MDR): 1 µg/mL (≈ 1.71 µM)
MIC (A. baumannii IHMA 2034657, Tunisia 2019, Non-MDR): 0.25 µg/mL (≈ 0.427 µM)
MIC (A. baumannii IHMA 2035089, Serbia 2019, MDR): 4 µg/mL (≈ 6.83 µM)
MIC (A. baumannii IHMA 2035134, Serbia 2019, Non-MDR): 0.12 µg/mL (≈ 0.205 µM)
MIC (A. baumannii IHMA 2038976, Hungary 2019, MDR): 2 µg/mL (≈ 3.41 µM)
MIC (A. baumannii IHMA 2051503, Serbia 2019, MDR): 2 µg/mL (≈ 3.41 µM)
MIC (A. baumannii IHMA 2058329, Slovenia 2019, Non-MDR): 0.25 µg/mL (≈ 0.427 µM)
MIC (A. baumannii IHMA 2065587, France 2019, Non-MDR): 0.25 µg/mL (≈ 0.427 µM)
MIC (A. baumannii IHMA 2099294, United Kingdom 2019, Non-MDR): 0.5 µg/mL (≈ 0.854 µM)
MIC (A. baumannii IHMA 2129256, Qatar 2019, Non-MDR): 0.12 µg/mL (≈ 0.205 µM)
MIC (A. baumannii IHMA 2154584, Israel 2020, MDR): 2 µg/mL (≈ 3.41 µM)
